Measurements from US20090239841A1, “Diaryl Ureas as CB1 Antagonists” (priority 2004, published 2009).
Like-named read-outs stand apart in the source and are kept apart here.

Target: T1, hCB1 (Homo sapiens, UniProt P21554)
T1 construct: made in house; host or cells: Sf9 insect cells (baculovirus), P2 membranes
Assay: Agonist-induced GTP binding (GTPγ35S) assay at CB1, Example 8
Format: biochemical
Details: read-out: IC50
Outline: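 Antagonism read as inhibition of 1 nM CP55,940-stimulated GTPγ35S ([…]) binding, compounds at 10^−10 to 10^−5 M. Baculovirus-infected Sf9 membranes bearing hCB1 plus G-protein subunits, 60 min room-temperature incubation with 5 μM GDP. Filtration and scintillation counting; data as percent over basal.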

[1] = Table II, IC50 at CB1, GTP binding with 1 nM CP55,940
[2] = IC50 at CB1, determined as described in Example 8

T1 sequence (P21554 whole entry): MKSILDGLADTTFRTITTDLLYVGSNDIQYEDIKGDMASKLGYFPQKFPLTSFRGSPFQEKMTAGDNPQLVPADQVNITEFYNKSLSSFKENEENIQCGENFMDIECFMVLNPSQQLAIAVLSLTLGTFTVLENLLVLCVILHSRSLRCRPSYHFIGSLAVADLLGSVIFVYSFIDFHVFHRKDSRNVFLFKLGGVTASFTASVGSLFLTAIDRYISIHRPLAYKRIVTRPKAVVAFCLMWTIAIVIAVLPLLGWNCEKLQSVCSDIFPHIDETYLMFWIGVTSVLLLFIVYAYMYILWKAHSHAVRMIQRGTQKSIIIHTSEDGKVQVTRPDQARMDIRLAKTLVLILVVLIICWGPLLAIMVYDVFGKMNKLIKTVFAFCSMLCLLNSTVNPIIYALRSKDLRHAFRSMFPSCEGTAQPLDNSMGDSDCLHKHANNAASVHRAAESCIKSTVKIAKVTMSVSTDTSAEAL

IC50 [1] | IC50 [2] | SMILES
< 2000 nM |  | COCc1ccc(NC(=O)Nc2ccc(Cl)cc2)cc1 [Compound 242, N-(4-chlorophenyl)-N′-[4-(methoxymethyl)phenyl]urea]
< 2000 nM |  | CCCOc1ccc(NC(=O)Nc2cccc(CC)c2)cc1 [Compound 243, N-(3-ethylphenyl)-N′-(4-propoxyphenyl)urea]
< 2000 nM |  | CCCOc1ccc(NC(=O)Nc2ccc(Cl)cc2)cc1 [Compound 245, N-(4-chlorophenyl)-N′-(4-propoxyphenyl)urea]
< 2000 nM |  | CC(C)Oc1ccc(NC(=O)Nc2cccc(Cl)c2)cc1 [Compound 251, N-(3-chlorophenyl)-N′-(4-isopropoxyphenyl)urea]
< 2000 nM |  | O=C(Nc1cccc(Cl)c1)Nc1cccc(OC(F)F)c1 [Compound 255, N-(3-chlorophenyl)-N′-[3-(difluoromethoxy)phenyl]urea]
< 2000 nM |  | COc1cccc(NC(=O)Nc2ccc(C(C)=O)cc2)c1 [Compound 258, N-(4-acetylphenyl)-N′-(3-methoxyphenyl)urea]
< 2000 nM |  | COc1ccc(NC(=O)Nc2cccc(C#N)c2)cc1 [Compound 259, N-(3-cyanophenyl)-N′-(4-methoxyphenyl)urea]
< 2000 nM |  | CCOc1cccc(NC(=O)Nc2ccc(C#N)cc2)c1 [Compound 261, N-(4-cyanophenyl)-N′-(3-ethoxyphenyl)urea]
< 2000 nM |  | CCOc1ccc(NC(=O)Nc2cccc(C(C)=O)c2)cc1 [Compound 266, N-(3-acetylphenyl)-N′-(4-ethoxyphenyl)urea]
< 2000 nM |  | COCc1ccc(NC(=O)Nc2cccc(C(C)=O)c2)cc1 [Compound 270, N-(3-acetylphenyl)-N′-[4-(methoxymethyl)phenyl]urea]
< 2000 nM |  | COCc1ccc(NC(=O)Nc2ccc(C(C)=O)cc2)cc1 [Compound 271, N-(4-acetylphenyl)-N′-[4-(methoxymethyl)phenyl]urea]
< 2000 nM |  | CCCOc1ccc(NC(=O)Nc2ccc(C#N)cc2)cc1 [Compound 272, N-(4-cyanophenyl)-N′-(4-propoxyphenyl)urea]
< 2000 nM |  | CCCOc1ccc(NC(=O)Nc2cccc(C(C)=O)c2)cc1 [Compound 274, N-(3-acetylphenyl)-N′-(4-propoxyphenyl)urea]
< 2000 nM |  | CC(C)Oc1ccc(NC(=O)Nc2cccc(C#N)c2)cc1 [Compound 280, N-(3-cyanophenyl)-N′-(4-isopropoxyphenyl)urea]
< 2000 nM |  | CC(=O)c1ccc(NC(=O)Nc2cccc(OC(F)F)c2)cc1 [Compound 286, N-(4-acetylphenyl)-N′-[3-(difluoromethoxy)phenyl]urea]
< 2000 nM |  | CC(=O)c1ccc(NC(=O)Nc2ccc(OC(F)F)cc2)cc1 [Compound 288, N-(4-acetylphenyl)-N′-[4-(difluoromethoxy)phenyl]urea]
 | < 2000 nM | CCCc1ccc(NC(=O)Nc2cccc(C)c2)cc1 [Compound 292, 1-(3-methylphenyl)-3-(4-propylphenyl)urea]
 | < 2000 nM | CCCCc1ccc(NC(=O)Nc2ccccc2)cc1 [Compound 294, N-(4-butylphenyl)-N′-phenylurea]
 | < 2000 nM | Cc1cccc(NC(=O)Nc2cccc(OC(C)C)c2)c1 [Compound 297, 1-(3-isopropoxyphenyl)-3-(3-methylphenyl)urea]

Further lines, the compound ahead of its results:

SMILES | IC50 [1] | IC50 [2]
COCc1ccc(NC(=O)Nc2cccc(Cl)c2)cc1 [Compound 241, N-(3-chlorophenyl)-N′-[4-(methoxymethyl)phenyl]urea] | < 2000 nM | 
CCCOc1ccc(NC(=O)Nc2cccc(Cl)c2)cc1 [Compound 244, N-(3-chlorophenyl)-N′-(4-propoxyphenyl)urea] | < 2000 nM | 
CCc1cccc(NC(=O)Nc2cccc(OC(C)C)c2)c1 [Compound 246, N-(3-ethylphenyl)-N′-(3-isopropoxyphenyl)urea] | < 2000 nM | 
CC(C)Oc1cccc(NC(=O)Nc2cccc(Cl)c2)c1 [Compound 247, N-(3-chlorophenyl)-N′-(3-isopropoxyphenyl)urea] | < 2000 nM | 
CC(C)Oc1cccc(NC(=O)Nc2ccc(Cl)cc2)c1 [Compound 248] | < 2000 nM | 
CCc1cccc(NC(=O)Nc2ccc(OC(C)C)cc2)c1 [Compound 249, N-(3-ethylphenyl)-N′-(4-isopropoxyphenyl)urea] | < 2000 nM | 
CCc1ccc(NC(=O)Nc2ccc(OC(C)C)cc2)cc1 [Compound 250, N-(4-ethylphenyl)-N′-(4-isopropoxyphenyl)urea] | < 2000 nM | 
CC(C)Oc1ccc(NC(=O)Nc2ccc(Cl)cc2)cc1 [Compound 252, N-(4-chlorophenyl)-N′-(4-isopropoxyphenyl)urea] | < 2000 nM | 
CCc1cccc(NC(=O)Nc2cccc(OC(F)F)c2)c1 [Compound 253, N-[3-(difluoromethoxy)phenyl]-N′-(3-ethylphenyl)urea] | < 2000 nM | 
CCc1ccc(NC(=O)Nc2cccc(OC(F)F)c2)cc1 [Compound 254, N-[3-(difluoromethoxy)phenyl]-N′-(4-ethylphenyl)urea] | < 2000 nM | 
O=C(Nc1ccc(Cl)cc1)Nc1cccc(OC(F)F)c1 [Compound 256, N-(4-chlorophenyl)-N′-[3-(difluoromethoxy)phenyl]urea] | < 2000 nM | 
O=C(Nc1ccc(Cl)cc1)Nc1ccc(OC(F)F)cc1 [Compound 257, N-(4-chlorophenyl)-N′-[4-(difluoromethoxy)phenyl]urea] | < 2000 nM | 
COc1ccc(NC(=O)Nc2ccc(C(C)=O)cc2)cc1 [Compound 260, N-(4-acetylphenyl)-N′-(4-methoxyphenyl)urea] | < 2000 nM | 
CCOc1cccc(NC(=O)Nc2cccc(C#N)c2)c1 [Compound 262, N-(3-cyanophenyl)-N′-(3-ethoxyphenyl)urea] | < 2000 nM | 
CCOc1cccc(NC(=O)Nc2ccc(C(C)=O)cc2)c1 [Compound 263, N-(4-acetylphenyl)-N′-(3-ethoxyphenyl)urea] | < 2000 nM | 
CCOc1ccc(NC(=O)Nc2ccc(C#N)cc2)cc1 [Compound 264, N-(4-cyanophenyl)-N′-(4-ethoxyphenyl)urea] | < 2000 nM | 
CCOc1ccc(NC(=O)Nc2cccc(C#N)c2)cc1 [Compound 265, N-(3-cyanophenyl)-N′-(4-ethoxyphenyl)urea] | < 2000 nM | 
CCOc1ccc(NC(=O)Nc2ccc(C(C)=O)cc2)cc1 [Compound 267, N-(4-acetylphenyl)-N′-(4-ethoxyphenyl)urea] | < 2000 nM | 
COCc1ccc(NC(=O)Nc2cccc(C#N)c2)cc1 [Compound 269, N-(3-cyanophenyl)-N′-[4-(methoxymethyl)phenyl]urea] | < 2000 nM | 
CCCOc1ccc(NC(=O)Nc2cccc(C#N)c2)cc1 [Compound 273, N-(3-cyanophenyl)-N′-(4-propoxyphenyl)urea] | < 2000 nM | 

SMILES | IC50 [1] | IC50 [2]
CCCOc1ccc(NC(=O)Nc2ccc(C(C)=O)cc2)cc1 [Compound 275, N-(4-acetylphenyl)-N′-(4-propoxyphenyl)urea] | < 2000 nM | 
CC(C)Oc1cccc(NC(=O)Nc2cccc(C#N)c2)c1 [Compound 276, N-(3-cyanophenyl)-N′-(3-isopropoxyphenyl)urea] | < 2000 nM | 
CC(=O)c1cccc(NC(=O)Nc2cccc(OC(C)C)c2)c1 [Compound 277, N-(3-acetylphenyl)-N′-(3-isopropoxyphenyl)urea] | < 2000 nM | 
CC(=O)c1ccc(NC(=O)Nc2cccc(OC(C)C)c2)cc1 [Compound 278, N-(4-acetylphenyl)-N′-(3-isopropoxyphenyl)urea] | < 2000 nM | 
CC(C)Oc1ccc(NC(=O)Nc2ccc(C#N)cc2)cc1 [Compound 279, N-(4-cyanophenyl)-N′-(4-isopropoxyphenyl)urea] | < 2000 nM | 
CC(=O)c1cccc(NC(=O)Nc2ccc(OC(C)C)cc2)c1 [Compound 281, N-(3-acetylphenyl)-N′-(4-isopropoxyphenyl)urea] | < 2000 nM | 
CC(=O)c1ccc(NC(=O)Nc2ccc(OC(C)C)cc2)cc1 [Compound 282, N-(4-acetylphenyl)-N′-(4-isopropoxyphenyl)urea] | < 2000 nM | 
N#Cc1ccc(NC(=O)Nc2cccc(OC(F)F)c2)cc1 [Compound 283, N-(4-cyanophenyl)-N′-[3-(difluoromethoxy)phenyl]urea] | < 2000 nM | 
N#Cc1cccc(NC(=O)Nc2cccc(OC(F)F)c2)c1 [Compound 284, N-(3-cyanophenyl)-N′-[3-(difluoromethoxy)phenyl]urea] | < 2000 nM | 
CC(=O)c1cccc(NC(=O)Nc2cccc(OC(F)F)c2)c1 [Compound 285, N-(3-acetylphenyl)-N′-[3-(difluoromethoxy)phenyl]urea] | < 2000 nM | 
N#Cc1ccc(NC(=O)Nc2ccc(OC(F)F)cc2)cc1 [Compound 287, N-(4-cyanophenyl)-N′-[4-(difluoromethoxy)phenyl]urea] | < 2000 nM | 
CCc1ccc(NC(=O)Nc2cccc(C)c2)cc1 [Compound 289, N-(4-ethylphenyl)-N′-(3-methylphenyl)urea] |  | < 2000 nM
CCc1ccc(NC(=O)Nc2ccc(C)cc2)cc1 [Compound 290, N-(4-ethylphenyl)-N′-(4-methylphenyl)urea] |  | < 2000 nM
CCCc1ccc(NC(=O)Nc2ccccc2)cc1 [Compound 291, N-phenyl-N′-(4-propylphenyl)urea] |  | < 2000 nM
CCCc1ccc(NC(=O)Nc2ccc(C)cc2)cc1 [Compound 293, N-(4-methylphenyl)-N′-(4-propylphenyl)urea] |  | < 2000 nM
CCCCc1ccc(NC(=O)Nc2ccc(C)cc2)cc1 [Compound 295, N-(4-butylphenyl)-N′-(4-methylphenyl)urea] |  | < 2000 nM
Cc1ccc(NC(=O)Nc2cccc(OC(C)C)c2)cc1 [Compound 298, N-(3-isopropoxyphenyl)-N′-(4-methylphenyl)urea] |  | < 2000 nM
Cc1ccc(NC(=O)Nc2ccc(C(C)C)cc2)cc1 [Compound 300, 1-(4-isopropylphenyl)-3-(4-methylphenyl)urea] |  | < 2000 nM
CCOc1ccc(NC(=O)Nc2cccc(C)c2)cc1 [Compound 302, 1-(4-ethoxyphenyl)-3-(3-methylphenyl)urea] |  | < 2000 nM
